Reference: US20050032896A1, “Use of synthetic retinoic acid in form of 13-cis vitamin A for treatment of autism” (priority 2002, published 2005)

Legend:
Format in all cases: in vivo, human
symptoms of autism = assay: Oral treatment of an autistic subject, observed symptoms of autism
Description: The patient in the present example is a child, weighs approximately 60 pounds, and is characterized by the symptoms of deficiencies in short term memory, inadequate independent problem solving skills for their age, deficient spontaneous verbalizations, utterances of diminished length, infrequent request to interact with family members and friends, insufficient capacity to master the complexity of play schemes for their age, and a tendency toward abnormal emotional responses (i.e. laughing when someone is seriously hurt in a movie, not offering assistance to family members when hurt, and not laughing along with siblings while watching cartoons, but instead tensing and becoming overly excited).
The subject weighing approximately 60 pounds was given a dosage of synthetic retinoic acid in the form of 13-cis vitamin A in amounts from about […] to about 40 mg per 60 lbs of body weight per day. […] Improvements in lessening the symptoms associated with the autism disorder were noted as early as 10 days into the treatment, with solid gains noted by the 17th day into the treatment.
(§1) As an example, the improvements in relief or elimination of symptoms of autistic disorder after about 17 days of administering synthetic retinoic acid in the form of 13-cis vitamin A at dosage levels of from about 20 mg every other day to about 40 mg per day, auditory evoked potential (AEP) responses were given before administering the mentioned dosage and after administration of the dosage regimen.

synaptic activity = assay: Auditory evoked potential (AEP) responses before and after the dosage regimen; settings: after the dosage regimen versus before
Method: as §1

[1] = Blood analysis for retinoic acid content after oral vitamin A palmitate, second study 1999 to 2000; settings: autistic subject; oral 20 mg every other day for two weeks, then 40 mg per day up to 5 months
Method: In a second study conducted in a period from 1999 to 2000, the autistic subject was orally given retinoic acid in the form of […] in an amount of 20 mg every other day for two weeks, and thereafter the dosage was increased to 40 mg per day for a period up to 5 months. […] Although there are numerous cis-trans isomers of vitamin A, there is no possibility for cis-trans isomerism about the cyclohexane double bond because the ring contains only 6 atoms. There are four carbon-carbon double bonds in the chain of atoms attached to the substituted cyclohexane ring, and each has the potential for cis-trans isomerism. Therefore, there are 2×2×2×2, or 16, possible cis-trans isomers for vitamin A. [drawing 1]

[2] = Blood analysis for retinoic acid content after oral vitamin A palmitate, first vitamin A study 1996; settings: autistic subject; vitamin A palmitate day 1=0, day 2=25,000 IU, day 3 through day 7=50,000 IU
Method: In the first vitamin A study in 1996, a sample of the autistic subjects blood was analyzed for retinoic acid content on the belief that there was a deficiency of retinoic acid. At this time, the subject had been receiving up to about 50,000 IU dose of vitamin A palmitate, wherein day 1=0, day 2=25,000 IU and day 3 through day 7=50,000 IU. The RDA is 5,000 IU per day.

[3] = 20 mg every other day for two weeks, then 40 mg per day, oral
[4] = autistic subject, oral dosage regimen

retinoic acid content in blood samples [1]	retinoic acid content in blood [2]	SMILES	time into treatment at which improvements in symptoms were first noted (symptoms of autism; [3]) [days]	time into treatment at which solid gains were noted (symptoms of autism; [3]) [days]	language and cognitive functions (symptoms of autism; after the dosage regimen for between about 10 and 17 days)	capability to master the complexity of play schemes (symptoms of autism; [4])	frequency of request to interact with family members and friends (symptoms of autism; [4])	independent problem solving skills (symptoms of autism; [4])	length of utterances (symptoms of autism; [4])	short term memory (symptoms of autism; [4])	spontaneous verbalizations (symptoms of autism; [4])	tendencies towards more normalized emotional responses (symptoms of autism; [4])	optimal dose for lessening the symptoms of autism (symptoms of autism; for two weeks, thereafter increased to 40 mg per day, person, approx. 60 pounds, oral)	synaptic activity recorded by audio evoked potentials (AEP) (synaptic activity)
–	–	CC1=C(/C=C/C(C)=C/C=C/C(C)=C\C(=O)O)C(C)(C)CCC1	10	≤ 17	noted improvement in language and cognitive functions	increase in the capability to master the complexity of play schemes	increase in the frequency of request to interact with family members and friends	improvement in independent problem solving skills	increase in the length of utterances	Improvement in short term memory	increase in spontaneous verbalizations	improvement in tendencies towards more normalized emotional responses	about 20 mg per 60 lbs of body weight every other day	increase in synaptic activity
contained no retinoic acid	no retinoic acid could be detected	CCCCCCCCCCCCCCCC(=O)OC/C=C(C)/C=C/C=C(C)/C=C/C1=C(C)CCCC1(C)C [vitamin A palmitate]	–	–	–	–	–	–	–	–	–	–	–	–
